According to ChEMBL document CHEMBL3817811, “Protective effect of α-mangostin against iodixanol-induced apoptotic damage in LLC-PK1 cells” (Bioorg Med Chem Lett, 2016):
Calls of active or inactive are those of the source. The rule behind the calls is not given here.

Legend:
LLC-PK1 [1] = test: Cytoprotective activity against 25 mg/ml iodixanol-induced cell damage in pig LLC-PK1 cells assessed as restoration of cell viability at 5 uM preincubated for 2 hrs followed by iodixanol addition measured after 3 hrs by MTT assay relative to control; type: functional, Sus scrofa
LLC-PK1 [2] = test: Cytoprotective activity against 25 mg/ml iodixanol-induced cell damage in pig LLC-PK1 cells assessed as inhibition of cleaved caspase-3 expression at 2.5 to 5 uM preincubated for 2 hrs followed by iodixanol addition measured after 3 hrs by western blot analysis; type: functional, cell-based; details: Sus scrofa
LLC-PK1 [3] = test: Cytoprotective activity against 25 mg/ml iodixanol-induced cell damage in pig LLC-PK1 cells assessed as restoration of cell viability preincubated for 2 hrs followed by iodixanol addition measured after 3 hrs by MTT assay; type: functional, cell-based; details: Sus scrofa
LLC-PK1 [4] = test: Inhibition of ERK phosphorylation in pig LLC-PK1 cells at 2.5 to 5 uM preincubated for 2 hrs followed by iodixanol addition measured after 3 hrs by western blot analysis; type: cell-based; details: Sus scrofa
LLC-PK1 [5] = test: Inhibition of JNK phosphorylation in pig LLC-PK1 cells at 2.5 to 5 uM preincubated for 2 hrs followed by iodixanol addition measured after 3 hrs by western blot analysis; type: cell-based; details: Sus scrofa
LLC-PK1 [6] = test: Cytotoxicity against pig LLC-PK1 cells assessed as reduction in cell viability at 1 to 10 uM incubated for 2 hrs by MTT assay; type: cell-based, Sus scrofa; details: llc-pk1, 2 h
LLC-PK1 [7] = test: Cytoprotective activity against 25 mg/ml iodixanol-induced apoptosis in pig LLC-PK1 cells assessed as reduction in dead cells preincubated for 2 hrs followed by iodixanol addition measured after 3 hrs by annexin V Alexa Fluor 488/propidium iodide staining based cytometry; type: functional, cell-based; details: Sus scrofa
LLC-PK1 [8] = test: Cytoprotective activity against 25 mg/ml iodixanol-induced cell damage in pig LLC-PK1 cells assessed as inhibition of caspase-3 enzyme activity using DEVD-pNA substrate at 2.5 to 5 uM preincubated for 2 hrs followed by iodixanol addition and subsequent incubation for 3 hrs followed by substrate addition measured after 1 hr by microplate reader analysis; type: functional, cell-based; details: Sus scrofa
LLC-PK1 [9] = test: Inhibition of p38 phosphorylation in pig LLC-PK1 cells at 2.5 to 5 uM preincubated for 2 hrs followed by iodixanol addition measured after 3 hrs by western blot analysis; type: cell-based; details: Sus scrofa

## COc1c(O)cc2oc3cc(O)c(CC=C(C)C)c(O)c3c(=O)c2c1CC=C(C)C [MANGOSTIN]
LLC-PK1 [1]
  Activity: <=90.42%
LLC-PK1 [2]
  inhibition: Active
LLC-PK1 [3]
  Activity: Dose-dependent effect
LLC-PK1 [4]
  inhibition: Active
LLC-PK1 [5]
  inhibition: Active
LLC-PK1 [6]
  Activity: Non-toxic
LLC-PK1 [7]
  Activity: Dose-dependent effect
LLC-PK1 [8]
  inhibition: Active
LLC-PK1 [9]
  inhibition: Active
